Results as given in the supplement of paper PMC11451515.

What was measured:
Details in all cases: 48 h
SEM cells [1] = experiment: AUC of viability dose-response curve (% viability x log10 dose units); higher = less sensitive
How it was run: (§1)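 Over 48 h at 37°C, leukemia cells in 1536-well plates (500 or 1000 cells/well), adapted to each medium, received library compounds in DMSO at 11 threefold doses from 47 μM to 0.79 nM. CellTiter-Glo One luminescence, normalised per plate to DMSO and cell-free wells, was fitted by a four-parameter log-logistic function of log10 dose. The area under the curve was then integrated by trapezoidal rule, after scaling curves above full viability and removing those that failed quality control.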

NOMO1 = experiment: as above
How it was run: as §1

P12-Ichikawa [2] = experiment: as above
How it was run: as §1

SEM cells [3] = experiment: cell viability relative to DMSO control; higher = less cytotoxic
How it was run: (§2)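 Viability, reported as a per-plate percentage of DMSO wells with cell-free wells as background, came from CellTiter-Glo One luminescence. Reading took place after 48 h at 37°C. Before that, NOMO1 or SEM (500 cells/well) or P12-Ichikawa (1000 cells/well) leukemia cells, adapted for at least four passages in each medium, were seeded in 1536-well plates (5 μl) and pin-dosed with library compounds in DMSO, 47 μM to 0.79 nM over 11 threefold points.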

P12-Ichikawa [4] = experiment: as above
How it was run: as §2

COc1cc(Oc2ccnc3cc(OC)c(OC)cc23)ccc1NC(=O)NC(C)c1nccs1 (stereo not given)
AUC of viability dose-response curve
Details	NOMO1	P12-Ichikawa [2]	SEM cells [1]
HPLM + 10% dialyzed FBS	444	449	453
RPMI 5 mM glucose + 10% FBS	463	446	440
RPMI 5 mM glucose + 10% dialyzed FBS	462	450	439

Cc1ccc(C(N)=O)cc1Nc1nccc(-c2cn(C(C)C)c3cnccc23)n1
cell viability [%], SEM cells [3]
Details	HPLM + 10% dialyzed FBS	RPMI 5 mM glucose + 10% dialyzed FBS
0.000781 µM	99	109
0.00234 µM	118	128
0.00702 µM	113	124
0.0211 µM	111	113
0.0632 µM	100	113
0.19 µM	88	87.3
0.569 µM	75	64.1
1.71 µM	80	71
5.12 µM	61.4	52.5
15.4 µM	29	34.8
46.1 µM	16.7	12.7

AUC of viability dose-response curve
Details	HPLM + 10% dialyzed FBS	RPMI 5 mM glucose + 10% FBS	RPMI 5 mM glucose + 10% dialyzed FBS
P12-Ichikawa [2]	463	459	451
SEM cells [1]	356	342	326

C[C@H]1CN(C[C@@H](C)N1)C2=C(F)C3=C(C(=C2F)N)C(=O)\C(=C/N3C4CC4)C(O)=O
cell viability [%], SEM cells [3]
Details	HPLM + 10% dialyzed FBS	RPMI 5 mM glucose + 10% dialyzed FBS
0.000781 µM	108	119
0.00234 µM	112	122
0.00702 µM	130	134
0.0211 µM	122	114
0.0632 µM	109	109
0.19 µM	115	124
0.569 µM	107	118
1.71 µM	91.4	95.3
5.12 µM	95.9	96.3
15.4 µM	86.4	88.7
46.1 µM	60.1	56.9

AUC of viability dose-response curve
Details	NOMO1	P12-Ichikawa [2]	SEM cells [1]
HPLM + 10% dialyzed FBS	422	448	424
RPMI 5 mM glucose + 10% FBS	466	441	423
RPMI 5 mM glucose + 10% dialyzed FBS	446	430	425

C/C(=C\C(=O)Nc1ccccc1C(=O)O)c1ccc2ccccc2c1
AUC of viability dose-response curve
Details	HPLM + 10% dialyzed FBS	RPMI 5 mM glucose + 10% FBS	RPMI 5 mM glucose + 10% dialyzed FBS
P12-Ichikawa [2]	461	461	456
SEM cells [1]	435	447	463

C\C1=N\N(C(=O)C1)C2=CC=CC=C2
cell viability [%], SEM cells [3]
Details	HPLM + 10% dialyzed FBS	RPMI 5 mM glucose + 10% FBS
0.000781 µM	102	113
0.00234 µM	104	121
0.00702 µM	121	129
0.0211 µM	136	119
0.0632 µM	130	130
0.19 µM	121	117
0.569 µM	112	121
1.71 µM	130	123
5.12 µM	121	132
15.4 µM	118	130
46.1 µM	111	117

AUC of viability dose-response curve
Details	NOMO1	P12-Ichikawa [2]	SEM cells [1]
HPLM + 10% dialyzed FBS	467	471	465
RPMI 5 mM glucose + 10% FBS	467	458	465
RPMI 5 mM glucose + 10% dialyzed FBS	462	473	473

O=C1CCC(N2C(=O)c3ccccc3C2=O)C(=O)N1 (stereo not given)
SEM cells [3], RPMI 5 mM glucose + 10% FBS
Details	cell viability [%]
0.000781 µM	106
0.00234 µM	114
0.00702 µM	115
0.0211 µM	112
0.0632 µM	102
0.19 µM	94.6
0.569 µM	98.2
1.71 µM	111
5.12 µM	101
15.4 µM	67.3
46.1 µM	98.9

AUC of viability dose-response curve
Details	NOMO1	P12-Ichikawa [2]	SEM cells [1]
HPLM + 10% dialyzed FBS	436	443	454
RPMI 5 mM glucose + 10% FBS	437	438	437
RPMI 5 mM glucose + 10% dialyzed FBS	461	450	443

CC(CCc1ccc(O)cc1)NCCc1ccc(O)c(O)c1 (stereo not given)
SEM cells [3], HPLM + 10% dialyzed FBS
Details	cell viability [%]
0.000781 µM	117
0.00234 µM	113
0.00702 µM	138
0.0211 µM	145
0.0632 µM	133
0.19 µM	141
0.569 µM	132
1.71 µM	128
5.12 µM	114
15.4 µM	90.5
46.1 µM	19.8

AUC of viability dose-response curve
Details	NOMO1	P12-Ichikawa [2]	SEM cells [1]
HPLM + 10% dialyzed FBS	463	441	436
RPMI 5 mM glucose + 10% FBS	461	450	415
RPMI 5 mM glucose + 10% dialyzed FBS	452	453	439

C=CC[N+]1([C@H]2C[C@H]3[C@@H]4CC[C@H]5C[C@H](O)[C@@H](N6CCOCC6)C[C@]5(C)[C@H]4CC[C@]3(C)[C@H]2OC(C)=O)CCCC1
SEM cells [3], HPLM + 10% dialyzed FBS
Details	cell viability [%]
0.000781 µM	130
0.00234 µM	116
0.00702 µM	119
0.0211 µM	125
0.0632 µM	114
0.19 µM	131
0.569 µM	124
1.71 µM	127
5.12 µM	119
15.4 µM	113
46.1 µM	113

AUC of viability dose-response curve
Details	NOMO1	P12-Ichikawa [2]	SEM cells [1]
HPLM + 10% dialyzed FBS	442	457	462
RPMI 5 mM glucose + 10% FBS	454	455	464
RPMI 5 mM glucose + 10% dialyzed FBS	455	462	465

CO[C@H]1O[C@@H]2O[C@@]3(C)CC[C@H]4[C@H](C)CC[C@@H]([C@H]1C)[C@@]24OO3
AUC of viability dose-response curve
Details	NOMO1	P12-Ichikawa [2]	SEM cells [1]
HPLM + 10% dialyzed FBS	436	433	429
RPMI 5 mM glucose + 10% FBS	433	430	456
RPMI 5 mM glucose + 10% dialyzed FBS	405	417	451

CC(C(=O)O)c1ccc(-c2ccccc2)c(F)c1 (stereo not given)
AUC of viability dose-response curve
Details	NOMO1	P12-Ichikawa [2]	SEM cells [1]
HPLM + 10% dialyzed FBS	464	424	442
RPMI 5 mM glucose + 10% FBS	476	432	417
RPMI 5 mM glucose + 10% dialyzed FBS	459	424	447

CC(C)C[C@H](NC(=O)c1cc2ccccc2s1)C(=O)N1CCN(C(=O)[C@H](CO)N[S+](=O)([O-])c2ccc(Cl)cc2Cl)CC1
AUC of viability dose-response curve
Details	NOMO1	P12-Ichikawa [2]	SEM cells [1]
HPLM + 10% dialyzed FBS	461	462	451
RPMI 5 mM glucose + 10% FBS	468	464	453
RPMI 5 mM glucose + 10% dialyzed FBS	436	462	439

O=C1Cc2cc(CCN3CCN(c4nsc5ccccc45)CC3)c(Cl)cc2N1
AUC of viability dose-response curve
Details	NOMO1	P12-Ichikawa [2]	SEM cells [1]
HPLM + 10% dialyzed FBS	444	459	380
RPMI 5 mM glucose + 10% FBS	460	469	366
RPMI 5 mM glucose + 10% dialyzed FBS	457	464	362

C=C[C@H]1CN2CCC1C[C@H]2[C@H](O)c1ccnc2ccccc12 (stereo not given in full)
SEM cells [3], RPMI 5 mM glucose + 10% dialyzed FBS
Details	cell viability [%]
0.000781 µM	123
0.00234 µM	120
0.00702 µM	122
0.0211 µM	133
0.0632 µM	126
0.19 µM	138
0.569 µM	132
1.71 µM	133
5.12 µM	108
15.4 µM	110
46.1 µM	55.1

AUC of viability dose-response curve
Details	NOMO1	P12-Ichikawa [2]	SEM cells [1]
HPLM + 10% dialyzed FBS	451	458	449
RPMI 5 mM glucose + 10% FBS	461	451	441
RPMI 5 mM glucose + 10% dialyzed FBS	433	461	452

CC/C(=C(/CC)c1ccc(O)cc1)c1ccc(O)cc1
AUC of viability dose-response curve
Details	NOMO1	P12-Ichikawa [2]	SEM cells [1]
HPLM + 10% dialyzed FBS	442	463	473
RPMI 5 mM glucose + 10% FBS	465	457	460
RPMI 5 mM glucose + 10% dialyzed FBS	429	436	421

CC(=O)NC(C)c1ccc(Oc2ccc(OC(C)C)cc2)cc1 (stereo not given)
AUC of viability dose-response curve
Details	HPLM + 10% dialyzed FBS	RPMI 5 mM glucose + 10% FBS	RPMI 5 mM glucose + 10% dialyzed FBS
P12-Ichikawa [2]	454	440	450
SEM cells [1]	469	438	449

CN(C1CCc2c(c3ccccc3n2CC(=O)O)C1)[S+](=O)([O-])c1ccc(F)cc1 (stereo not given)
AUC of viability dose-response curve
Details	NOMO1	P12-Ichikawa [2]	SEM cells [1]
HPLM + 10% dialyzed FBS	383	399	461
RPMI 5 mM glucose + 10% FBS	392	401	425
RPMI 5 mM glucose + 10% dialyzed FBS	392	419	454

CCN(CC)Cc1ccc2cc(COC(=O)Nc3ccc(C(=O)NO)cc3)ccc2c1
SEM cells [3], HPLM + 10% dialyzed FBS
Details	cell viability [%]
0.000781 µM	108
0.00234 µM	121
0.00702 µM	127
0.0211 µM	138
0.0632 µM	129
0.19 µM	138
0.569 µM	118
1.71 µM	59.1
5.12 µM	3.07
15.4 µM	2.21
46.1 µM	3.97

AUC of viability dose-response curve
Details	NOMO1	P12-Ichikawa [2]	SEM cells [1]
HPLM + 10% dialyzed FBS	362	349	333
RPMI 5 mM glucose + 10% FBS	372	347	345
RPMI 5 mM glucose + 10% dialyzed FBS	370	352	339

CC(C)C[C@@H](N)[C@H](O)C(=O)N[C@H](C(=O)N[C@H](C(=O)N[C@@H](CC(=O)O)C(=O)O)C(C)C)C(C)C
AUC of viability dose-response curve
Details	NOMO1	P12-Ichikawa [2]	SEM cells [1]
HPLM + 10% dialyzed FBS	455	468	465
RPMI 5 mM glucose + 10% FBS	462	433	446
RPMI 5 mM glucose + 10% dialyzed FBS	463	450	477

CC(C)C1=N[N](C\2=C1C(=O)N\C(=N2)CC3=CC=C(OCCO)C=C3)C4=C(Cl)C=CC=C4Cl
cell viability [%]
Details	HPLM + 10% dialyzed FBS	RPMI 5 mM glucose + 10% FBS	RPMI 5 mM glucose + 10% dialyzed FBS
P12-Ichikawa [4], 0.000781 µM	116	–	118
P12-Ichikawa [4], 0.00234 µM	116	–	129
P12-Ichikawa [4], 0.00702 µM	109	–	117
P12-Ichikawa [4], 0.0211 µM	108	–	124
P12-Ichikawa [4], 0.0632 µM	107	–	127
P12-Ichikawa [4], 0.19 µM	44	–	31.8
P12-Ichikawa [4], 0.569 µM	10.7	–	10.9
P12-Ichikawa [4], 1.71 µM	5.9	–	5.95
P12-Ichikawa [4], 5.12 µM	6.83	–	6.23
P12-Ichikawa [4], 15.4 µM	6.62	–	6.55
P12-Ichikawa [4], 46.1 µM	5.21	–	3.77
SEM cells [3], 0.000781 µM	95.1	52.1	90.4
SEM cells [3], 0.00234 µM	125	98.6	102
SEM cells [3], 0.00702 µM	108	85.3	100
SEM cells [3], 0.0211 µM	109	75.8	109
SEM cells [3], 0.0632 µM	95.9	76.5	107
SEM cells [3], 0.19 µM	16.8	13.8	34.2
SEM cells [3], 0.569 µM	8.67	6.73	8.73
SEM cells [3], 1.71 µM	6.16	4.7	6.73
SEM cells [3], 5.12 µM	5.35	4.18	5.07
SEM cells [3], 15.4 µM	4.68	4.05	4.3
SEM cells [3], 46.1 µM	3.44	2.06	3.59

AUC of viability dose-response curve
Details	HPLM + 10% dialyzed FBS	RPMI 5 mM glucose + 10% FBS	RPMI 5 mM glucose + 10% dialyzed FBS
NOMO1	225	226	222
P12-Ichikawa [2]	244	241	239
